Measured values from patent US8188059B2, “Compounds and methods for modulating expression of GCGR” (Isis Pharmaceuticals, Inc., priority 2006, dated 2012).
Strand notation (5' to 3'): a small letter for the sugar, then the base; units joined by * are phosphorothioate-linked, units joined directly phosphodiester-linked; [ ] holds rarer units or linkages, { } end groups; capitals alone tell only the bases. e = 2'-O-(2-methoxyethyl) (MOE); [5mC] = 5-methylcytosine; d = 2'-deoxy (DNA)

Columns and labels:
rat SGLT2 mRNA [1] = test: Rat SGLT2 mRNA levels in kidney, 1-10-1 gapmers at 250 nmol/kg, Sprague-Dawley rats (Example 14, Table 66); format: in vivo; settings: 250 nmol/kg i.p. twice per week for three weeks; Sprague-Dawley rats; kidney
Protocol: The effect of the above 1-10-1gapmers (see Table 64 above) on rat SGLT2 mRNA levels. Data are taken from four experiments in which male Sprague-Dawley rats (170-200 g) were dosed twice per week for three weeks with 250 nmol/kg given by intraperitoneal injection. Rats were sacrificed 48 hours following last administration and evaluated for SGLT2 mRNA levels in kidney. Target levels were determined by RT, real-time PCR as described by other examples herein. PCR results were normalized to an internal ISIS control.

rat SGLT2 mRNA [2] = test: Rat SGLT2 mRNA levels in kidney, 1-10-1 and 1-10-2 MOE gapmers, Sprague-Dawley rats (Example 13, Table 63); format: in vivo
Excerpt: 1-10-1 and 1-10-2 MOE gapmer antisense compounds, provided in Table 62, were designed to target different regions of the mouse or rat SGLT2 RNA. All short antisense compounds in Table 62 are chimeric oligonucleotides (“gapmers”) either 12 or 13 nucleotides in length, composed of a central “gap” segment consisting of ten 2′-deoxynucleotides, which are flanked on the 5′ side by a one-nucleoside “wing” and on the 3′ side by a two or one-nucleotide “wing”. […] All cytidine residues are 5-methylcytidines.
The short antisense compounds were analyzed for their effect on rat SGLT2 mRNA levels. Data are ranges taken from three experiments in which Male Sprague-Dawley rats (170-200 g) were dosed twice per week for three weeks with 450, 150 or 50 nmol/kg of either a 1-10-1 or 1-10-2 MOE gapmer given by intraperitoneal injection. Rats were sacrificed 48 hours following last administration and evaluated for SGLT2 mRNA levels in kidney. Target levels were determined by RT, real-time PCR as described by other examples herein. PCR results were normalized to an internal ISIS control.

mouse SGLT2 mRNA [3] = test: Mouse SGLT2 mRNA levels in kidney, additional 1-10-1 and 2-8-2 MOE gapmers, Balb/c mice (Example 15, Table 68); format: in vivo
mouse SGLT2 mRNA [4] = test: Mouse SGLT2 mRNA levels in kidney, 1-10-1 MOE gapmers, Balb/c mice (Example 14, Table 65); format: in vivo
Protocol: The short antisense compounds were analyzed for their effect on mouse SGLT2 mRNA levels. Data was taken from three experiments in which Male 6-week old Balb/c mice were dosed twice per week for two weeks with 450, 150, or 50 nmol/kg of one of the above 1-10-1 MOE gapmers given by intraperitoneal injection. Mice were sacrificed 48 hours following last administration and evaluated for SGLT2 mRNA levels in kidney. Target levels were determined by RT, real-time PCR as described by other examples herein. PCR results were normalized to an internal ISIS control.

PTP1B mRNA [5] = test: Antisense inhibition of human PTP1B in HepG2 cells at 25 nM (Example 24, Table 85); format: cell-based
Protocol: Short antisense compounds targeted to a PTP1B nucleic acid were tested for their effects on PTP1B mRNA in vitro. Cultured HepG2 cells at a density of 10000 cells per well in a 96-well plate were treated with 25 nM of antisense oligonucleotide. After the treatment period, RNA was isolated from the cells and PTP1B mRNA levels were measured by quantitative real-time PCR, as described herein. PTP1B mRNA levels were adjusted according to total RNA content as measured by RIBOGREEN®. Results are presented as percent inhibition (% Ihib) of PTP1B, relative to untreated control cells.

PTP1B mRNA [6] = test: Antisense inhibition of human PTP1B in HuVEC cells at 3 nM (Example 23, Table 84); format: cell-based
Protocol: Short antisense compounds targeted to a PTP1B nucleic acid were tested for their effects on PTP1B mRNA in vitro. Cultured HuVEC cells at a density of 5000 cells per well in a 96-well plate were treated as described herein with 3 nM of short antisense compound. After the treatment period, RNA was isolated from the cells and PTP1B mRNA levels were measured by quantitative real-time PCR, as described herein. PTP1B mRNA levels were adjusted according to total RNA content as measured by RIBOGREEN®. Results are presented as percent inhibition of PTP1B (% Inhib), relative to untreated control cells.

mouse SGLT2 mRNA [7] = test: Mouse SGLT2 mRNA levels in kidney, MOE versus Methyleneoxy BNA gapmers, Balb/c mice (Example 15, Table 69); format: in vivo
Protocol: The effect of ISIS 379692 1-10-1 MOE gapmer and ISIS 388625 2-8-2 MOE gapmer are compared with the effect of ISIS 392170 1-10-1 Methyleneoxy BNA Gapmer and ISIS 392173 2-8-2 Methyleneoxy BNA Gapmer (see Table 69) on mouse SGLT2 mRNA levels in vivo. Data are taken from three experiments in which male 6-week old Balb/c mice were dosed twice per week for three weeks with 5, 25 and 125 nmol/kg of either the ISIS 379692 1-10-1 MOE gapmer or the ISIS 388625 2-8-2 MOE gapmer given by intraperitoneal injection. Mice were sacrificed 48 hours following last administration and evaluated for SGLT2 mRNA levels in kidney. Target levels were determined by RT, real-time PCR as described by other examples herein. PCR results were normalized to an internal ISIS control. The data are expressed as percent change (“+” indicates an increase, “−” indicates a decrease) relative to saline treated animals and are illustrated in Table 69.

rat SGLT2 mRNA [8] = test: Rat SGLT2 mRNA levels in kidney, ISIS 379692 and ISIS 388625, Sprague-Dawley rats (Example 15, Table 70); format: in vivo; settings: i.p. twice per week for three weeks
Protocol: The effect of ISIS 379692 1-10-1 MOE gapmer and ISIS 388625 MOE 2-8-2 gapmer (see Table 70) on rat SGLT2 mRNA levels in vivo. […] Rats were sacrificed 48 hours following last administration and evaluated for SGLT2 levels in kidney. Target levels were determined by RT, real-time PCR as described by other examples herein. PCR results were normalized to an internal ISIS control.

[9] = 50 nmol/kg i.p. twice per week for three weeks
[10] = 150 nmol/kg i.p. twice per week for three weeks
[11] = 450 nmol/kg i.p. twice per week for three weeks
[12] = 0.02 umol/kg i.p. twice per week for three weeks
[13] = 0.1 umol/kg i.p. twice per week for three weeks
[14] = 0.5 umol/kg i.p. twice per week for three weeks
[15] = 50 nmol/kg i.p. twice per week for two weeks
[16] = 150 nmol/kg i.p. twice per week for two weeks
[17] = 450 nmol/kg i.p. twice per week for two weeks

Substance	% change in SGLT2 expression relative to saline (rat SGLT2 mRNA [1])	% change in SGLT2 expression relative to saline (rat SGLT2 mRNA [2]; [9])	% change in SGLT2 expression relative to saline (rat SGLT2 mRNA [2]; [10])	% change in SGLT2 expression relative to saline (rat SGLT2 mRNA [2]; [11])	% change in SGLT2 expression relative to saline (mouse SGLT2 mRNA [3]; [12])	% change in SGLT2 expression relative to saline (mouse SGLT2 mRNA [3]; [13])	% change in SGLT2 expression relative to saline (mouse SGLT2 mRNA [3]; [14])	% change in SGLT2 expression relative to saline (mouse SGLT2 mRNA [4]; [15])	% change in SGLT2 expression relative to saline (mouse SGLT2 mRNA [4]; [16])	% change in SGLT2 expression relative to saline (mouse SGLT2 mRNA [4]; [17])	% Inhib (PTP1B mRNA) (PTP1B mRNA [5])	% Inhib (PTP1B mRNA) (PTP1B mRNA [6])	SGLT2 mRNA, percent change relative to saline treated animals (mouse SGLT2 mRNA [7]; 5 nmol/kg i.p. twice per week for three weeks)	SGLT2 mRNA, percent change relative to saline treated animals (mouse SGLT2 mRNA [7]; 25 nmol/kg i.p. twice per week for three weeks)	SGLT2 mRNA, percent change relative to saline treated animals (mouse SGLT2 mRNA [7]; 125 nmol/kg i.p. twice per week for three weeks)	% change in SGLT2 expression relative to saline (rat SGLT2 mRNA [8]; dose 3.125 umol/kg (head))	% change in SGLT2 expression relative to saline (rat SGLT2 mRNA [8]; dose 12.5 umol/kg (head))	% change in SGLT2 expression relative to saline (rat SGLT2 mRNA [8]; dose 50 umol/kg (head))	% change in SGLT2 expression relative to saline (rat SGLT2 mRNA [8]; dose 200 umol/kg (head))
ISIS 379699: SGLT2; GGCATGAGCTTC 1-10-1 MOE (antisense eG*dG*d[5mC]*dA*dT*dG*dA*dG*d[5mC]*dT*dT*e[5mC])	−75%	−60%	−75%	−83%	−30%	−60%	−75%	−42.5%	−62.5%	−80%	–	–	–	–	–	–	–	–	–
404137 (antisense e[5mC]*eA*dG*dT*dG*dT*dG*d[5mC]*dA*d[5mC]*dA*d[5mC]*eA*eG) [compound 404137]	–	–	–	–	–	–	–	–	–	–	71%	76%	–	–	–	–	–	–	–
404138 (antisense e[5mC]*eT*d[5mC]*dA*dG*dT*dG*dT*dG*d[5mC]*dA*d[5mC]*eA*e[5mC]) [compound 404138]	–	–	–	–	–	–	–	–	–	–	86%	76%	–	–	–	–	–	–	–
ISIS 379692: SGLT2; 1-10-1 MOE gapmer (antisense eT*dG*dT*dT*d[5mC]*d[5mC]*dA*dG*d[5mC]*d[5mC]*d[5mC]*eA)	−85%	−80%	−85%	−90%	−55%	−75%	−85%	−52.5%	−70%	−80%	–	–	−7 percent change	−46 percent change	−58 percent change	+30%	−15%	−65%	−80%
